Source: patent US9504747B2, “Lipids and lipid compositions for the delivery of active agents” (Novartis AG, priority 2013, dated 2016)
Values joined by “and” are separate entries in the source; they are usually repeats but may differ in a detail not shown here. Identical values can stand only once.

How the values were obtained:
[1] = pKa measurement of the cationic lipid (TNS fluorescence vs pH); type: physicochemical; settings: probe TNS (fluorescent probe), pKa of the cationic lipid of formula (I)
Description: Unless indicated otherwise, all pKa's referred to herein were measured at standard temperature and pressure. Also, unless otherwise indicated, all references to pKa are references to pKa measured using the following technique. 2 mM solution of lipid in ethanol was prepared by weighing the lipid and then dissolving it in ethanol. 0.3 mM solution of fluorescent probe TNS in ethanol:methanol 9:1 was prepared by first making 3 mM solution of TNS in methanol and then diluting to 0.3 mM with ethanol. An aqueous buffer containing 200 mM sodium phosphate dibasic and 100 mM citric acid was prepared. […] Using the Hamilton Microlab Star high throughput liquid handler and Hamilton run control software Software, 7.5 uL of probe/lipid mix were added to 242.5 uL of buffer in a 1 mL 96 well plate (model NUNC 260252, […] Nunc International). This was done with all twelve buffers. After mixing in 1 mL 96 well plate, 100 uL of each probe/lipid/buffer mixture was transferred to a 250 uL black with clear bottom 96 well plate (model COSTAR 3904, Corning). The fluorescence measurements are carried out on the SpectraMax M5 spectrophotometer using software SoftMax pro 5.2 and following parameters: After the measurement, the background fluorescence value of an empty well on the 96 well plate was subtracted from each probe/lipid/buffer mixture. The fluorescence intensity values were then normalized to the value at lowest pH. The normalized fluorescence intensity vs. pH chart was then plotted in the Microsoft Excel software. The twelve points were connected with a smooth line. The point on the line at which the normalized fluorescence intensity was equal to 0.5 was found. […] The pKa determined using this method is precise to about 0.1 pKa units.

[2] = Particle size of the lipid nanoparticle (dynamic light scattering, Malvern Zetasizer); type: physicochemical; settings: Table 4, FVII siRNA LNP, Z-average
Source text: (§1) The lipid nanoparticles have a size of about 1 to about 2,500 nm, about 1 to about 1,500 nm, about 1 to about 1,000 nm, in a sub-embodiment about 50 to about 600 nm, in a sub-embodiment about 50 to about 400 nm, in a sub-embodiment about 50 to about 250 nm, and in a sub-embodiment about 50 to about 150 nm. Unless indicated otherwise, all sizes referred to herein are the average sizes (diameters) of the fully formed nanoparticle, as measured by dynamic light scattering on a Malvern Zetasizer. The nanoparticle sample is diluted in phosphate buffered saline (PBS) so that the count rate is approximately 200-400 kcts. The data is presented as a weighted average of the intensity measure. The lipid nanoparticles (LNPs) were formed by mixing equal volumes of lipids dissolved in alcohol with siRNA dissolved in a citrate buffer by an impinging jet process. […] The siRNA to total lipid ratio is approximately 0.05 (wt/wt). Where a LNP formulation contains four lipid components, the molar ratios correspond to the type of lipid as it appears in the first four columns of the table, in the order that they appear. The ratio of the lipids ranges from 20 to 70 mole percent for the cationic lipid with a target of 40-60, the mole percent of helper lipid ranges from 20 to 70 with a target of 30 to 50, the mole percent of neutral lipid ranges from 0-30, the mole percent of PEG lipid has a range from 1 to 6 with a target of 2 to 5. The concentration of siRNA solution ranges from 0.7 to 1.0 mg/mL with a target of 0.8 to 0.9 mg/mL in a sodium citrate: sodium chloride buffer pH 4-6, with a target of 4.5-5.5. The LNPs are formed by mixing equal volumes of lipid solution in ethanol with siRNA dissolved in a citrate buffer by an impinging jet process through a mixing device with ID ranging from 0.25 to 2.0 mm at a flow rate from 10 to 640 mL/min. The mixed LNP solution is held at room temperature for 0-24 hrs prior to a dilution step. […] The final product is sterile filtered and stored at 4° C. Unless indicated otherwise, all particle size measurements referred to in Tables 4 and 5 are the Z-average particle size of the fully formed nanoparticle, as measured by dynamic light scattering on a Malvern Zetasizer. The nanoparticle sample was diluted in phosphate buffered saline (PBS) so that the count rate is approximately 200-400 kcts.

[3] = Polydispersity index (PDI) of the lipid nanoparticle (dynamic light scattering); type: physicochemical
Source text: as §1, with “The” for “The lipid nanoparticles have a size of about 1 to about 2,500 nm, about 1 to about 1,500 nm, about 1 to about 1,000 nm, in a sub-embodiment about 50 to about 600 nm, in a sub-embodiment about 50 to about 400 nm, in a sub-embodiment about 50 to about 250 nm, and in a sub-embodiment about 50 to about 150 nm. Unless indicated otherwise, all sizes referred to herein are the average sizes (diameters) of the fully formed nanoparticle, as measured by dynamic light scattering on a Malvern Zetasizer. The nanoparticle sample is diluted in phosphate buffered saline (PBS) so that the count rate is approximately 200-400 kcts. The data is presented as a weighted average of the intensity measure. The”, “all PDIs” for “all particle size measurements”, “to herein” for “to in Tables 4 and 5”, “the PDI” for “the Z-average particle size”, “rate was” for “rate is”, “kcts. The data is presented in Tables 4 and 5 as a weighted average of the intensity measure.” for “kcts.”

[4] = test system: respiratory syncytial virus F protein; assay: Immunization studies: anti-RSV-F titers after liposome-delivered vA317 self-replicating RNA; type: in vivo; settings: BALB/c mice, Course A = days 0 & 21, liposomes with 0.1 μg vA317 replicon (naked control 1 μg)
Description: BALB/c were immunized with liposomes comprising DSPC, cholesterol, and various lipids of the invention (or, for comparison, the cationic lipid 1,2-dilinoleyloxy-N,N-dimethyl-3-aminopropane or ‘DLinDMA’). The liposomes encapsulated 0.1 μg of “vA317” self-replicating RNA replicon which encodes respiratory syncytial virus F protein (see WO2012/031043). […] Doses were given either on days 0 & 21 or days 0 & 42. Immune responses were assessed 2 weeks after each dose (2wp1, 2wp2), and in some cases also at 4 weeks after the second dose (4wp2). Four series of experiments were performed, each with its own naked control.

[5] = Chol/DSPC/stealth lipid S010, molar ratio 45/44/9/2
[6] = Table 4, FVII siRNA LNP, Chol/DSPC/stealth lipid S010, 45/44/9/2
[7] = Table 4, FVII siRNA LNP, Chol/DSPC/stealth lipid PEG-DMG, 45/44/9/2

Row | Compound | pKa ([1]; Table 4) | Size (nm) [2, 5] | PDI [3, 6] | also measured
1 | CCCCCCCC(=O)OC[C@@H](CCOc1cc(CN(C)C)cc(OCC[C@H](COC(=O)CCCCCCC)OC(=O)CCCCCCC)c1)OC(=O)CCCCCCC [Example 94] | 6.16 | 116.4 nm | 0.073 | –
2 | CCCCC/C=C\C/C=C\CCCCCCCC(=O)OCCCCCCCCOc1cc(CN(C)C)cc(OCCCCCCCCOC(=O)CCCCCCC/C=C\C/C=C\CCCCC)c1 [Example 46] | 6.18 | 102.4 nm | 0.135 | –
3 | CCCCCCCC/C=C\CCCCCCCC(=O)OCCCCOc1cc(CN(C)C)cc(OCCCCOC(=O)CCCCCCC/C=C\CCCCCCCC)c1 [Example 60] | 6.21 | 95.55 nm | 0.098 | –
4 | CCCCCCCC(=O)OCC(CCCCOc1cc(CN(C)C)cc(OCCCCC(COC(=O)CCCCCCC)COC(=O)CCCCCCC)c1)COC(=O)CCCCCCC [Example 110] | 5.66 | 183.3 nm | 0.071 | –
5 | CCCCC/C=C\C/C=C\CCCCCCCC(=O)OCCCCOc1cc(CN2CC(O)C2)cc(OCCCCOC(=O)CCCCCCC/C=C\C/C=C\CCCCC)c1 [Example 49] | 5.99 | 111.1 nm | 0.046 | –
6 | CCCCCCCC(=O)OCCCCCCCC(=O)OCc1cc(COC(=O)CCCCCCCOC(=O)CCCCCCC)cc(CN(C)C)c1 [Example 87] | 6.07 | 159.2 nm | 0.089 | –
7 | CCCCCCCCCC(=O)OCCCCCCOc1cc(CN(C)C)cc(OCCCCCCOC(=O)CCCCCCCCC)c1 [Example 47] | 6.07 | 125.9 nm | 0.035 | Size (nm) ([2]; Chol/DSPC/stealth lipid PEG-DMG, molar ratio 45/44/9/2): 109.3 nm; PDI [3, 7]: 0.06
8 | CCCCCCCCCC(=O)OCCCCCC(=O)OCc1cc(COC(=O)CCCCCOC(=O)CCCCCCCCC)cc(CN(C)C)c1 [Example 88] | 5.99 | 152.4 nm | 0.046 | –
9 | CCCCCCCC(=O)OC[C@H](CCOc1cc(CN(C)C)cc(OCC[C@@H](COC(=O)CCCCCCC)OC(=O)CCCCCCC)c1)OC(=O)CCCCCCC [Example 93] | 6 | 121.5 nm | 0.071 | –
10 | CCCCCCCCCC(=O)OCCCC(=O)OCCCOc1cc(CN(C)C)cc(OCCCOC(=O)CCCOC(=O)CCCCCCCCC)c1 [Example 96] | 5.71 | 197.3 nm | 0.14 | –
11 | CCCCC/C=C\C/C=C\CCCCCCCC(=O)OCCCC(=O)OCc1cc(COC(=O)CCCOC(=O)CCCCCCC/C=C\C/C=C\CCCCC)cc(CN(C)C)c1 [Example 82] | 6.03 | 119.2 nm | 0.064 | –
12 | CCCCCC(=O)OCCCCCCCCCCOc1cc(CN(C)C)cc(OCCCCCCCCCCOC(=O)CCCCC)c1 [Example 44] | 5.66 | 172.9 nm | 0.077 | –
13 | CCCCC/C=C\C/C=C\CCCCCCCCOc1cc(COC(=O)CCN(C)C)cc(OCCCCCCCC/C=C\C/C=C\CCCCC)c1 [Example 14] | 6.11 | – | 0.059 | anti-RSV-F titer 4wp2 pool 1 ([4]; 4 weeks after second dose): 13687 and 21375; anti-RSV-F titer 4wp2 pool 2 ([4]; 4 weeks after second dose): 18851 and 21347
14 | CCCCC/C=C\CC=CCCCCCCCC(=O)OCCCCOc1cc(CN(C)C)cc(OCCCCOC(=O)CCCCCCCC=CC/C=C\CCCCC)c1C [Example 51] | – | 103.2 nm | 0.052 | –
15 | CCCCC/C=C\C/C=C\CCCCCCCCOc1cc(CN(C)C)cc(OCCCCCCCC/C=C\C/C=C\CCCCC)c1 [Example 2] | 5.57 | – | 0.067 | pKa ([1]; Table 5): 5.57; PDI [3, 7]: 0.04; PDI ([3]; Table 5, PLK1-424 siRNA LNP, stealth lipid S011, 45/44/9/2): 0.1; anti-RSV-F titer 2wp1 pool 1 ([4]; 2 weeks after first dose): 217; anti-RSV-F titer 2wp1 pool 2 ([4]; 2 weeks after first dose): 259; anti-RSV-F titer 2wp2 pool 1 ([4]; 2 weeks after second dose): 12785; anti-RSV-F titer 2wp2 pool 2 ([4]; 2 weeks after second dose): 8232
16 | CCCCC/C=C\C/C=C\CCCCCCCCOC(=O)CCCCOc1cc(CN(C)C)cc(OCCCCC(=O)OCCCCCCCC/C=C\C/C=C\CCCCC)c1 [Example 89] | 6.02 | – | 0.076 | –
17 | CCCCCCCC(=O)OCCCCCCCCCCOC(=O)CCC(=O)OCc1cc(COC(=O)CCC(=O)OCCCCCCCCCCOC(=O)CCCCCCC)cc(CN(C)C)c1 [Example 78] | 6.02 | – | 0.043 | –
